ChEMBL document CHEMBL1201862, “PubChem BioAssay data set” (2004)
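Following 48 hours of exposure in 96-well plates, responses at five concentrations were used to interpolate endpoints linearly. Here, GI50 denotes the concentration required for 50% inhibition of growth.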 Activity calls are given as the source filed them. Cut-off read from the data, not from the text of the source: active = GI50 up to about 1.1 µM and inactive = higher.

What was measured:
Assay in all cases: growth of human tumour cells (NCI), 48 h
A498 = system: A498
A549 = system: A549
HCT-116 = system: HCT-116
HCT-15 = system: HCT-15
HOP-62 = system: HOP-62
K562 = system: K562
MDA-MB-435 = system: MDA-MB-435
NCI-H460 = system: NCI-H460
NCI/ADR-RES = system: NCI/ADR-RES
OVCAR-4 = system: OVCAR-4
OVCAR-5 = system: OVCAR-5
PC-3 = system: PC-3
RXF 393 = system: RXF 393
SF-268 = system: SF-268
SF-295 = system: SF-295
SK-MEL-2 = system: SK-MEL-2
SK-OV-3 = system: SK-OV-3
SNB-19 = system: SNB-19
T47D = system: T47D
UO-31 = system: UO-31

SMILES	GI50 (A498)	GI50 (A549)	GI50 (HCT-116)	GI50 (HCT-15)	GI50 (HOP-62)	GI50 (K562)	GI50 (MDA-MB-435)	GI50 (NCI-H460)	GI50 (NCI/ADR-RES)	GI50 (OVCAR-4)	GI50 (OVCAR-5)	GI50 (PC-3)	GI50 (RXF 393)	GI50 (SF-268)	GI50 (SF-295)	GI50 (SK-MEL-2)	GI50 (SK-OV-3)	GI50 (SNB-19)	GI50 (T47D)	GI50 (UO-31)
CC(C)CC(NC(=O)C(Cc1ccccc1)NC(=O)[C@H]1CC[C@H](NC(=O)C(Cc2ccc(OC(C)(C)C)cc2)NC(=O)OC(C)(C)C)C1)C(N)=O (stereo not given in full)	39.7 µM (inactive)	50.9 µM (inactive)	14.7 µM (inactive)	18 µM	36.2 µM (inactive)	17 µM (inactive)	18.7 µM (inactive)	17.3 µM (inactive)	> 100 µM (inactive)	29 µM (inactive)	31 µM (inactive)	18.1 µM (inactive)	67.8 µM (inactive)	24.6 µM (inactive)	28.8 µM (inactive)	20.2 µM (inactive)	44.7 µM (inactive)	38.4 µM (inactive)	18.5 µM (inactive)	47 µM (inactive)
CC12c3c4cccc3Oc3cc(N)cc(c31)Oc1cc(N)cc(c12)O4	2.74 µM (inactive)	3.77 µM (inactive)	3.14 µM (inactive)	4.14 µM	5.75 µM (inactive)	4.18 µM (inactive)	1.24 µM (inactive)	3.48 µM (inactive)	0.953 µM (active)	10.4 µM (inactive)	4.31 µM (inactive)	3.58 µM (inactive)	0.408 µM (active)	4.31 µM (inactive)	2.53 µM (inactive)	9.86 µM (inactive)	4.11 µM (inactive)	7.14 µM (inactive)	9.98 µM (inactive)	17.7 µM (inactive)
